Measurements published in ChEMBL document CHEMBL1201861, “Genomics of Drug Sensitity in Cancer screening data, Wellcome Trust Sanger Institute”.

Each compound was assayed on COR-L88 (assay: cells). Conditions: Homo sapiens, COR-L88.
Format: functional, cell-based, Homo sapiens
Description: SANGER: Inhibition of human COR-L88 cell growth in a cell viability assay.

Row | SMILES | IC50 [µM]
1 | Oc1ccc2ccccc2c1SSc1c(O)ccc2ccccc12 | > 32

Each compound was assayed on LU-134-A (assay: cells). Conditions: Homo sapiens, LU-134-A.
Format: functional, cell-based, Homo sapiens
Description: SANGER: Inhibition of human LU-134-A cell growth in a cell viability assay.

Row | SMILES | IC50 [µM]
2 | Oc1ccc2ccccc2c1SSc1c(O)ccc2ccccc12 | > 32

The compounds below were run on A388 (assay: cells). Conditions: Homo sapiens, A388.
Format: functional, cell-based, Homo sapiens
Description: SANGER: Inhibition of human A388 cell growth in a cell viability assay.

Row | SMILES | IC50 [µM]
3 | Oc1ccc2ccccc2c1SSc1c(O)ccc2ccccc12 | > 32

These compounds were tested on A4-Fuk (assay: cells). Conditions: Homo sapiens, A4-Fuk.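 Further: growth inhibition of A4-Fuk cells, read out by a cell viability assay.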
Format: functional, cell-based, Homo sapiens
Description: SANGER: Inhibition of human A4-Fuk cell growth in a cell viability assay.

Row | SMILES | IC50 [µM]
4 | Oc1ccc2ccccc2c1SSc1c(O)ccc2ccccc12 | 9.44

What follows are compounds tested on MMAC-SF (assay: cells). Conditions: Homo sapiens, MMAC-SF.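 Further: growth inhibition of human MMAC-SF cells, read out with a cell viability assay.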
Format: functional, cell-based, Homo sapiens
Description: SANGER: Inhibition of human MMAC-SF cell growth in a cell viability assay.

Row | SMILES | IC50 [µM]
5 | Oc1ccc2ccccc2c1SSc1c(O)ccc2ccccc12 | > 32

These compounds were tested on MEG-01 (assay: cells). Conditions: Homo sapiens, MEG-01.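 Further: growth inhibition of MEG-01 cells, read out by a cell viability assay.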
Format: functional, cell-based, Homo sapiens
Description: SANGER: Inhibition of human MEG-01 cell growth in a cell viability assay.

Row | SMILES | IC50 [µM]
6 | Oc1ccc2ccccc2c1SSc1c(O)ccc2ccccc12 | > 32

The compounds below were run on NCI-H1838 (assay: cells). Conditions: Homo sapiens, NCI-H1838.
Format: functional, cell-based, Homo sapiens
Description: SANGER: Inhibition of human NCI-H1838 cell growth in a cell viability assay.

Row | SMILES | IC50 [µM]
7 | Oc1ccc2ccccc2c1SSc1c(O)ccc2ccccc12 | > 32

These compounds were tested on HCE-4 (assay: cells). Conditions: Homo sapiens, HCE-4.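 Further: cell viability assay measuring inhibition of growth in the human HCE-4 cell line.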
Format: functional, cell-based, Homo sapiens
Description: SANGER: Inhibition of human HCE-4 cell growth in a cell viability assay.

Row | SMILES | IC50 [µM]
8 | Oc1ccc2ccccc2c1SSc1c(O)ccc2ccccc12 | > 32

These compounds were tested on EKVX (assay: cells). Conditions: Homo sapiens, EKVX.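 Further: growth inhibition of human EKVX cells, read out with a cell viability assay.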
Format: functional, cell-based, Homo sapiens
Description: SANGER: Inhibition of human EKVX cell growth in a cell viability assay.

Row | SMILES | IC50 [µM]
9 | Oc1ccc2ccccc2c1SSc1c(O)ccc2ccccc12 | > 32

These compounds were tested on IST-MES1 (assay: cells). Conditions: Homo sapiens, IST-MES1.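 Further: growth inhibition of IST-MES1 cells, measured with a cell viability assay.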
Format: functional, cell-based, Homo sapiens
Description: SANGER: Inhibition of human IST-MES1 cell growth in a cell viability assay.

Row | SMILES | IC50 [µM]
10 | Oc1ccc2ccccc2c1SSc1c(O)ccc2ccccc12 | > 32

The compounds below were run on HCC1187 (assay: cells). Conditions: Homo sapiens, HCC1187.
Format: functional, cell-based, Homo sapiens
Description: SANGER: Inhibition of human HCC1187 cell growth in a cell viability assay.

Row | SMILES | IC50 [µM]
11 | Oc1ccc2ccccc2c1SSc1c(O)ccc2ccccc12 | > 32

The compounds below were run on HD-MY-Z (assay: cells). Conditions: Homo sapiens, HD-MY-Z.
Format: functional, cell-based, Homo sapiens
Description: SANGER: Inhibition of human HD-MY-Z cell growth in a cell viability assay.

Row | SMILES | IC50 [µM]
12 | Oc1ccc2ccccc2c1SSc1c(O)ccc2ccccc12 | > 32

These compounds were tested on OS-RC-2 (assay: cells). Conditions: Homo sapiens, OS-RC-2.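 Further: growth inhibition of human OS-RC-2 cells, measured by a cell viability assay.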
Format: functional, cell-based, Homo sapiens
Description: SANGER: Inhibition of human OS-RC-2 cell growth in a cell viability assay.

Row | SMILES | IC50 [µM]
13 | Oc1ccc2ccccc2c1SSc1c(O)ccc2ccccc12 | > 32

The compounds below were run on CW-2 (assay: cells). Conditions: Homo sapiens, CW-2.
Format: functional, cell-based, Homo sapiens
Description: SANGER: Inhibition of human CW-2 cell growth in a cell viability assay.

Row | SMILES | IC50 [µM]
14 | Oc1ccc2ccccc2c1SSc1c(O)ccc2ccccc12 | > 32

The compounds below were run on KM-H2 (assay: cells). Conditions: Homo sapiens, KM-H2.
Format: functional, cell-based, Homo sapiens
Description: SANGER: Inhibition of human KM-H2 cell growth in a cell viability assay.

Row | SMILES | IC50 [µM]
15 | Oc1ccc2ccccc2c1SSc1c(O)ccc2ccccc12 | > 32

Each compound was assayed on NCI-H209 (assay: cells). Conditions: Homo sapiens, NCI-H209.
Format: functional, cell-based, Homo sapiens
Description: SANGER: Inhibition of human NCI-H209 cell growth in a cell viability assay.

Row | SMILES | IC50 [µM]
16 | Oc1ccc2ccccc2c1SSc1c(O)ccc2ccccc12 | > 32

These compounds were tested on NCI-H1155 (assay: cells). Conditions: Homo sapiens, NCI-H1155.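 Further: cell growth inhibition measured by a viability assay.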
Format: functional, cell-based, Homo sapiens
Description: SANGER: Inhibition of human NCI-H1155 cell growth in a cell viability assay.

Row | SMILES | IC50 [µM]
17 | Oc1ccc2ccccc2c1SSc1c(O)ccc2ccccc12 | > 32

Each compound was assayed on PSN1 (assay: cells). Conditions: Homo sapiens, PSN1.
Format: functional, cell-based, Homo sapiens
Description: SANGER: Inhibition of human PSN1 cell growth in a cell viability assay.

Row | SMILES | IC50 [µM]
18 | Oc1ccc2ccccc2c1SSc1c(O)ccc2ccccc12 | > 32

What follows are compounds tested on SF-539 (assay: cells). Conditions: Homo sapiens, SF-539.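 Further: Read-out is a cell viability assay, with IC50 reflecting inhibition of cell growth.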
Format: functional, cell-based, Homo sapiens
Description: SANGER: Inhibition of human SF539 cell growth in a cell viability assay.

Row | SMILES | IC50 [µM]
19 | Oc1ccc2ccccc2c1SSc1c(O)ccc2ccccc12 | > 32

These compounds were tested on COLO-320-HSR (assay: cells). Conditions: Homo sapiens, COLO-320-HSR.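 Further: growth inhibition of COLO-320-HSR cells, determined with a cell viability assay.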
Format: functional, cell-based, Homo sapiens
Description: SANGER: Inhibition of human COLO-320-HSR cell growth in a cell viability assay.

Row | SMILES | IC50 [µM]
20 | Oc1ccc2ccccc2c1SSc1c(O)ccc2ccccc12 | > 32

What follows are compounds tested on SHP77 (assay: cells). Conditions: Homo sapiens, SHP77.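 Further: growth inhibition of human SHP-77 cells measured by a cell viability assay.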
Format: functional, cell-based, Homo sapiens, SHP-77
Description: SANGER: Inhibition of human SHP-77 cell growth in a cell viability assay.

Row | SMILES | IC50 [µM]
21 | Oc1ccc2ccccc2c1SSc1c(O)ccc2ccccc12 | > 32

Each compound was assayed on HL-60 (assay: cells). Conditions: Homo sapiens, HL-60.
Format: functional, cell-based, Homo sapiens
Description: SANGER: Inhibition of human HL-60 cell growth in a cell viability assay.

Row | SMILES | IC50 [µM]
22 | Oc1ccc2ccccc2c1SSc1c(O)ccc2ccccc12 | 8.85

What follows are compounds tested on NCI-H23 (assay: cells). Conditions: Homo sapiens, NCI-H23.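 Further: cell viability assay measuring growth inhibition of NCI-H23 cells.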
Format: functional, cell-based, Homo sapiens
Description: SANGER: Inhibition of human NCI-H23 cell growth in a cell viability assay.

Row | SMILES | IC50 [µM]
23 | Oc1ccc2ccccc2c1SSc1c(O)ccc2ccccc12 | > 32

Each compound was assayed on KE-37 (assay: cells). Conditions: Homo sapiens, KE-37.
Format: functional, cell-based, Homo sapiens
Description: SANGER: Inhibition of human KE-37 cell growth in a cell viability assay.

Row | SMILES | IC50 [µM]
24 | Oc1ccc2ccccc2c1SSc1c(O)ccc2ccccc12 | 3.5

Each compound was assayed on SW 954 (assay: cells). Conditions: Homo sapiens, SW 954.
Format: functional, cell-based, Homo sapiens
Description: SANGER: Inhibition of human SW954 cell growth in a cell viability assay.

Row | SMILES | IC50 [µM]
25 | Oc1ccc2ccccc2c1SSc1c(O)ccc2ccccc12 | > 32

The compounds below were run on LB373-MEL-D (assay: cells). Conditions: Homo sapiens, LB373-MEL-D.
Format: functional, cell-based, Homo sapiens
Description: SANGER: Inhibition of human LB373-MEL-D cell growth in a cell viability assay.

Row | SMILES | IC50 [µM]
26 | Oc1ccc2ccccc2c1SSc1c(O)ccc2ccccc12 | > 32

What follows are compounds tested on LB2241-RCC (assay: cells). Conditions: Homo sapiens, LB2241-RCC.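 Further: cell viability assay measuring how strongly the cultured human renal carcinoma line is prevented from growing.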
Format: functional, cell-based, Homo sapiens
Description: SANGER: Inhibition of human LB2241-RCC cell growth in a cell viability assay.

Row | SMILES | IC50 [µM]
27 | Oc1ccc2ccccc2c1SSc1c(O)ccc2ccccc12 | 28

These compounds were tested on KURAMOCHI (assay: cells). Conditions: Homo sapiens, KURAMOCHI.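 Further: growth inhibition of KURAMOCHI cells, read out with a cell viability assay.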
Format: functional, cell-based, Homo sapiens
Description: SANGER: Inhibition of human KURAMOCHI cell growth in a cell viability assay.

Row | SMILES | IC50 [µM]
28 | Oc1ccc2ccccc2c1SSc1c(O)ccc2ccccc12 | > 32

These compounds were tested on KINGS-1 (assay: cells). Conditions: Homo sapiens, KINGS-1.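 Further: cell viability assay measuring suppression of KINGS-1 cell growth.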
Format: functional, cell-based, Homo sapiens
Description: SANGER: Inhibition of human KINGS-1 cell growth in a cell viability assay.

Row | SMILES | IC50 [µM]
29 | Oc1ccc2ccccc2c1SSc1c(O)ccc2ccccc12 | > 32

These compounds were tested on GI-1 (assay: cells). Conditions: Homo sapiens, GI-1.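 Further: growth inhibition of human GI-1 cells, measured with a cell viability readout.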
Format: functional, cell-based, Homo sapiens
Description: SANGER: Inhibition of human GI-1 cell growth in a cell viability assay.

Row | SMILES | IC50 [µM]
30 | Oc1ccc2ccccc2c1SSc1c(O)ccc2ccccc12 | > 32

Each compound was assayed on RKO (assay: cells). Conditions: Homo sapiens, RKO.
Format: functional, cell-based, Homo sapiens
Description: SANGER: Inhibition of human RKO cell growth in a cell viability assay.

Row | SMILES | IC50 [µM]
31 | Oc1ccc2ccccc2c1SSc1c(O)ccc2ccccc12 | 5.28

The compounds below were run on KG-1 (assay: cells). Conditions: Homo sapiens, KG-1.
Format: functional, cell-based, Homo sapiens
Description: SANGER: Inhibition of human KG-1 cell growth in a cell viability assay.

Row | SMILES | IC50 [µM]
32 | Oc1ccc2ccccc2c1SSc1c(O)ccc2ccccc12 | > 32

Each compound was assayed on MC116 (assay: cells). Conditions: Homo sapiens, MC116.
Format: functional, cell-based, Homo sapiens
Description: SANGER: Inhibition of human MC116 cell growth in a cell viability assay.

Row | SMILES | IC50 [µM]
33 | Oc1ccc2ccccc2c1SSc1c(O)ccc2ccccc12 | > 32

What follows are compounds tested on MLMA (assay: cells). Conditions: Homo sapiens, MLMA.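 Further: growth inhibition of MLMA cells (human), determined through a cell viability readout.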
Format: functional, cell-based, Homo sapiens
Description: SANGER: Inhibition of human MLMA cell growth in a cell viability assay.

Row | SMILES | IC50 [µM]
34 | Oc1ccc2ccccc2c1SSc1c(O)ccc2ccccc12 | 29.2

These compounds were tested on NCI-H1770 (assay: cells). Conditions: Homo sapiens, NCI-H1770.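 Further: growth inhibition of NCI-H1770 cells determined with a viability readout.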
Format: functional, cell-based, Homo sapiens
Description: SANGER: Inhibition of human NCI-H1770 cell growth in a cell viability assay.

Row | SMILES | IC50 [µM]
35 | Oc1ccc2ccccc2c1SSc1c(O)ccc2ccccc12 | > 32

What follows are compounds tested on Mo (assay: cells). Conditions: Homo sapiens, Mo.
Format: functional, cell-based, Homo sapiens
Description: SANGER: Inhibition of human Mo-T cell growth in a cell viability assay.

Row | SMILES | IC50 [µM]
36 | Oc1ccc2ccccc2c1SSc1c(O)ccc2ccccc12 | > 32

What follows are compounds tested on MOLT-4 (assay: cells). Conditions: Homo sapiens, MOLT-4.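 Further: growth inhibition of MOLT-4 cells, determined with a cell viability readout.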
Format: functional, cell-based, Homo sapiens
Description: SANGER: Inhibition of human MOLT-4 cell growth in a cell viability assay.

Row | SMILES | IC50 [µM]
37 | Oc1ccc2ccccc2c1SSc1c(O)ccc2ccccc12 | 14

Each compound was assayed on K562 (assay: cells). Conditions: Homo sapiens, K562.
Format: functional, cell-based, Homo sapiens
Description: SANGER: Inhibition of human K-562 cell growth in a cell viability assay.

Row | SMILES | IC50 [µM]
38 | Oc1ccc2ccccc2c1SSc1c(O)ccc2ccccc12 | > 32

Each compound was assayed on EW-16 (assay: cells). Conditions: Homo sapiens, EW-16.
Format: functional, cell-based, Homo sapiens
Description: SANGER: Inhibition of human EW-16 cell growth in a cell viability assay.

Row | SMILES | IC50 [µM]
39 | Oc1ccc2ccccc2c1SSc1c(O)ccc2ccccc12 | 24.8

These compounds were tested on DJM-1 (assay: cells). Conditions: Homo sapiens, DJM-1.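 Further: growth inhibition of human DJM-1 cells, read out by a cell viability assay.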
Format: functional, cell-based, Homo sapiens
Description: SANGER: Inhibition of human DJM-1 cell growth in a cell viability assay.

Row | SMILES | IC50 [µM]
40 | Oc1ccc2ccccc2c1SSc1c(O)ccc2ccccc12 | > 32

What follows are compounds tested on NOS-1 (assay: cells). Conditions: Homo sapiens, NOS-1.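 Further: growth inhibition of the human NOS-1 cell line, read out with a cell viability assay.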
Format: functional, cell-based, Homo sapiens
Description: SANGER: Inhibition of human NOS-1 cell growth in a cell viability assay.

Row | SMILES | IC50 [µM]
41 | Oc1ccc2ccccc2c1SSc1c(O)ccc2ccccc12 | 11.7

What follows are compounds tested on LU-139 (assay: cells). Conditions: Homo sapiens, LU-139.
Format: functional, cell-based, Homo sapiens
Description: SANGER: Inhibition of human LU-139 cell growth in a cell viability assay.

Row | SMILES | IC50 [µM]
42 | Oc1ccc2ccccc2c1SSc1c(O)ccc2ccccc12 | > 32

The compounds below were run on RCC10RGB (assay: cells). Conditions: Homo sapiens, RCC10RGB.
Format: functional, cell-based, Homo sapiens
Description: SANGER: Inhibition of human RCC10RGB cell growth in a cell viability assay.

Row | SMILES | IC50 [µM]
43 | Oc1ccc2ccccc2c1SSc1c(O)ccc2ccccc12 | > 32

The compounds below were run on KS-1 (assay: cells). Conditions: Homo sapiens, KS-1.
Format: functional, cell-based, Homo sapiens
Description: SANGER: Inhibition of human KS-1 cell growth in a cell viability assay.

Row | SMILES | IC50 [µM]
44 | Oc1ccc2ccccc2c1SSc1c(O)ccc2ccccc12 | 6.89

These compounds were tested on ES5 (assay: cells). Conditions: Homo sapiens, ES5.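 Further: growth inhibition of human ES5 cells, read out by a cell viability assay.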
Format: functional, cell-based, Homo sapiens
Description: SANGER: Inhibition of human ES5 cell growth in a cell viability assay.

Row | SMILES | IC50 [µM]
45 | Oc1ccc2ccccc2c1SSc1c(O)ccc2ccccc12 | 12.3

Each compound was assayed on ES8 (assay: cells). Conditions: Homo sapiens, ES8.
Format: functional, cell-based, Homo sapiens
Description: SANGER: Inhibition of human ES8 cell growth in a cell viability assay.

Row | SMILES | IC50 [µM]
46 | Oc1ccc2ccccc2c1SSc1c(O)ccc2ccccc12 | > 32

What follows are compounds tested on no-10 (assay: cells). Conditions: Homo sapiens.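 Further: growth inhibition of no-10 cells, read out with a cell viability assay.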
Format: functional, cell-based, Homo sapiens
Description: SANGER: Inhibition of human no-10 cell growth in a cell viability assay.

Row | SMILES | IC50 [µM]
47 | Oc1ccc2ccccc2c1SSc1c(O)ccc2ccccc12 | > 32

What follows are compounds tested on TK-10 (assay: cells). Conditions: Homo sapiens, TK-10.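 Further: growth inhibition of TK-10 cells, read out in a cell viability assay.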
Format: functional, cell-based, Homo sapiens
Description: SANGER: Inhibition of human TK10 cell growth in a cell viability assay.

Row | SMILES | IC50 [µM]
48 | Oc1ccc2ccccc2c1SSc1c(O)ccc2ccccc12 | > 32

These compounds were tested on NTERA-2-cl-D1 (assay: cells). Conditions: Homo sapiens, NTERA-2-cl-D1.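 Further: inhibition of cell growth, measured with a cell viability assay.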
Format: functional, cell-based, Homo sapiens
Description: SANGER: Inhibition of human NTERA-S-cl-D1 cell growth in a cell viability assay.

Row | SMILES | IC50 [µM]
49 | Oc1ccc2ccccc2c1SSc1c(O)ccc2ccccc12 | > 32
